Test results from US9556099B2 (INDENA S.P.A., priority 2013, dated 2017).

Key:
[1] = Plasma and brain levels in mice treated subacutely by intraperitoneal administration (HPLC/MS/MS); details: 20 mg/kg i.p. twice a day for 4 days, mean±S.E. of 4 animals
Experimental: In mice treated subacutely (twice a day for 4 days) by intraperitoneal administration at the dose of 20 mg/kg of the products according to the invention, their brain and plasma levels were determined by a combined HPLC/MS/MS analysis technique developed on the basis of a method already described by Keller J. H. et al. (Anal. Chem. 75, 6084, 2003).
Each value is the mean±S.E. of 4 animals. Time 0 corresponds to the 14th hour after the previous treatment

[2] = test system: neuropathological damage induced by Aβ fibrils; test: Neuropathological damage induced by Aβ fibrils in vivo (stereotactic injection into the dorsal hippocampus); details: male rats, product co-injected with 80 μg Aβ fibrils into the dorsal hippocampus; for Density of reactive astrocytes: control 11 ± 4, fibrils only 39 ± 7; for Measurement of astrocyte soma: control 101 ± 18, fibrils only 310 ± 16
Experimental: To evaluate the potential neuroprotective effect of the products according to the invention, male rats were treated stereotactically in the dorsal hippocampus with 80 μg of Aβ fibrils in the presence or absence of the products.

[3] = time 0 h (14th hour after the previous treatment)

Compound: CC(C)=CCC[C@]1(C)[C@@H](CC=C(C)C)C[C@@]2(CC=C(C)C)C(=O)[C@]1(C(=O)C(C)C)C(=O)C(CC=C(C)C)=C2O [Hyperforin, hyperforin]
- Brain [1, 3]: 15.2 ± 16.1 ng/g
- Brain/Plasma [1, 3]: 1.89 ± 0.91%
- Plasma [1, 3]: 624.5 ± 81.8 ng/mL
- Brain ([1]; time 1 h): 21.1 ± 7.4 ng/g
- Brain/Plasma ([1]; time 1 h): 1.24 ± 0.75%
- Plasma ([1]; time 1 h): 1547.2 ± 226.6 ng/mL
- Brain ([1]; time 2 h): 23.2 ± 7.8 ng/g
- Brain/Plasma ([1]; time 2 h): 1.32 ± 0.82%
- Plasma ([1]; time 2 h): 1421.3 ± 235.4 ng/mL
- Brain ([1]; time 4 h): 32.3 ± 8.1 ng/g
- Brain/Plasma ([1]; time 4 h): 1.91 ± 0.91%
- Plasma ([1]; time 4 h): 1275.4 ± 212.8 ng/mL
- Brain ([1]; time 6 h): 35.6 ± 8.8 ng/g
- Brain/Plasma ([1]; time 6 h): 2.12 ± 1.12%
- Plasma ([1]; time 6 h): 1192.6 ± 196.5 ng/mL
- Density of reactive astrocytes [2]: 37 ± 6 GFAP^+ cell./4 × 10^3 μm^2
- Measurement of astrocyte soma [2]: 306 ± 14 arbitrary unit

Compound: deisopropyl-dehydro tetrahydro adhyperforin
- Density of reactive astrocytes [2]: 24 ± 4 GFAP^+ cell./4 × 10^3 μm^2
- Measurement of astrocyte soma [2]: 117 ± 9 arbitrary unit
